In one data set the test system is trypsin. Put plainly: Trypsin digestion followed by HPLC. Type of data set: in vitro ADME. The following applies: trypsin (isolated protease), after 30 min, peptide:trypsin 100:1, peptide 1 µg/µL, 50 mM ammonium bicarbonate buffer pH 8.2, 37 °C, reverse-phase HPLC-MS read-out, assays in duplicate, read-out: Decrease in the area of the starting HPLC peak on trypsin treatment. The source says: It was of particular interest to ascertain how the internal cyclization and D-amino acid modifications influenced the lifespan of the partially cyclic structures. To this end, peptides 1 and 2, both with a TM5 disruptor sequence fused to a linear or a cyclic CPP motif, respectively, were inspected by high-performance liquid chromatography (HPLC) upon trypsin treatment. Analysis confirmed the vulnerability of fully linear 1 (Figure 3), with a 90% decrease in the area of the starting peak after only 30 min (Figure 4), and the appearance of new peaks identified by mass spectrometry (MS) (Table 2).
A 1000 µg/1000 µL trypsin solution (Thermo Fisher Scientific, Cornellà de Llobregat, Spain) […]) was prepared by suspending the lyophilized enzyme in 50 mM ammonium bicarbonate buffer, pH 8.2. Peptides dissolved in the same buffer (1 µg/µL) were incubated with trypsin (peptide:trypsin ratio = 100:1) for 24 h at 37 °C. Samples were collected at various time points and digestion was stopped by addition of 20% (v/v) of 0.5% formic acid in H2O. Samples were stored at −20 °C until analyzed by reverse-phase HPLC-MS.

Data set [1] addresses T1, A2AR homodimer (A2A-cYFP / A2A-nYFP) in HEK-293T cells (Homo sapiens, UniProt P29274).
T1 construct: expressed in transfected cells; host or cells: HEK-293T
The data set can be described thus: Bimolecular fluorescence complementation (BiFC) assay of A2A receptor homodimer disruption. It counts as cell-based. Conditions: 4 h incubation with peptide; for Effect on the control BiFC fluorescence (A2AR dimerization): HEK-293T cells, A2A-cYFP / A2A-nYFP, versus fluorescence of the dimer in the absence of peptides.
Protocol: For bimolecular fluorescence complementation (BiFC) assays: cells were transfected using cDNAs coding for two versions of the receptor. As described elsewhere [18, 27], two cDNAs were prepared: each encoding the receptor fused to one of the two halves of the super yellow fluorescent protein (sYFP). […] Each half of the fluorescent protein is unable, by itself, to emit fluorescence, which is only feasible after complementation of the two halves of the sYFP.
To address homodimer disruption, bimolecular fluorescence complementation assays were performed using HEK-293T cells transfected with equal amounts of cDNAs (0.75 µg cDNA each) for A2A-cYFP and A2A-nYFP fusion proteins (intramural production, see [17, 18, 26, 28]). […] Fluorescence was recorded in a Fluostar Optima fluorimeter (BMG Labtechnologies, Offenburg, Germany). […] Values of fluorescence obtained in the absence or presence of peptides are given as mean ± standard error of the mean (SEM) of 16 independent experiments in duplicates.

The target in data set [2] is T2, adenosine A2A receptor, fused to one half of super yellow fluorescent protein (A2A-cYFP or A2A-nYFP), BiFC … (UniProt P29274 1-412).
T2 construct: source: HEK-293T, transfected, in living cells
The data set can be described thus: split reporter (BiFC, NanoBiT); competition: HEK-293T cells expressing A2A-cYFP and A2A-nYFP treated with TM5 peptides 1 or 2 for 4 h before the complementation assay, in supplemented DMEM; dose-dependent loss of YFP fluorescence. Conditions: one partner purified.

Ends that are not written are not given here.

T1 sequence (P29274 whole entry): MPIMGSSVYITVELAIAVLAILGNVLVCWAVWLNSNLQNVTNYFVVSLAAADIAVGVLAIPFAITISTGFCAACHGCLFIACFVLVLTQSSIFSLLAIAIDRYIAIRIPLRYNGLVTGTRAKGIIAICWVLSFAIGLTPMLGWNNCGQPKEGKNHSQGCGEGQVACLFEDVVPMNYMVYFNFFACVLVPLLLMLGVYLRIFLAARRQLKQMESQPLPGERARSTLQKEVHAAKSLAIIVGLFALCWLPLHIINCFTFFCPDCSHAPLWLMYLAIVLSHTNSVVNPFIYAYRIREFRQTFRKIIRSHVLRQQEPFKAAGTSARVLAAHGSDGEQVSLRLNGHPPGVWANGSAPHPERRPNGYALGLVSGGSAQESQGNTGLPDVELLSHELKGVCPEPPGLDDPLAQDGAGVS
T2 sequence (P29274 whole entry, the tested form may be a part): as the sequence (P29274 whole entry) above

Take “MNYMVYFNFFACVLVPLLLMLGVYLYGRKKRRQRRR-NH2 [Peptide 1]”: the metabolised at 0.5 h, 1 µg/µL in the data set with trypsin turned out to be 90%. Further, in data set [1], the “Effect on the control BiFC fluorescence (A2AR dimerization)” value is recorded as “affected the fluorescence of the control in a dose-dependent manner”. In general, IC50 refers to the concentration that inhibits the measured activity by half. As for “MNYMVYFNFFACVLVPLLLMLGVYL[KrRrGrKkRrE]-amide (sidechain bridge or staple) [Peptide 2, Cyclic Tat-like TM5: A2AR TM5 fused to cyclic KrRrGrKkRrE motif, N-terminus acetylated]”, the IC50 in data set [1] (HEK-293T cells transfected with A2A-cYFP and A2A-nYFP, 48 h post-transfection, supplemented DMEM, Figure 2B, mean +/- SD, n = 12 in duplicates, read-out: IC50 for reduction of BiFC (sYFP complementation) fluorescence of the A2AR homodimer) came out at 350 nM. In data set [1], the “Effect on the control BiFC fluorescence (A2AR dimerization)” value is “affected the fluorescence of the control in a dose-dependent manner”.

B1: Peptide 2, cyclic Tat-like TM5 (peptide)
peptide: MNYMVYFNFFACVLVPLLLMLGVYLKRRRGRKKRRE
modifications: also: cyclic (mode of cyclisation not given here)
notes: also called TM5-cyclic Tat-like; cyclic version 2; source: synthetic peptide (Fmoc solid-phase synthesis, on-resin cyclization, purified by preparative HPLC)
Regarding B1, in data set [2], the half-maximal inhibitory concentration (IC50) was 350 nM.

B2: Peptide 1, linear Tat-based TM5 (peptide)
peptide: MNYMVYFNFFACVLVPLLLMLGVYLYGRKKRRQRRR-NH2
notes: TM5 helical domain of the adenosine A2A receptor (A2AR); also called linear TM5-Tat; linear peptide 1; source: synthetic peptide (Fmoc solid-phase synthesis, purified by preparative HPLC)
For B2, in data set [2], the IC50 was 520 nM.

These data come from publication PMC6801510, “A2A Receptor Homodimer-Disrupting Sequence Efficiently Delivered by a Protease-Resistant, Cyclic CPP Vector” (International Journal of Molecular Sciences, 2019).
